pIC50: −log10 of the molar value.
molecular target: T1, Human DGAT1 (Homo sapiens, UniProt O75907); test: human DGAT1 lipid extraction (LE) assay, inhibition of triacylglycerol product formation; assay type: biochemical; conditions: human DGAT1 microsomes from Sf9 cells, read-out: hDGAT LE IC50
T1 construct: made in house; host or cells: Sf9 insect cells (baculovirus); microsomes used as enzyme
T1 sequence (O75907 1-488): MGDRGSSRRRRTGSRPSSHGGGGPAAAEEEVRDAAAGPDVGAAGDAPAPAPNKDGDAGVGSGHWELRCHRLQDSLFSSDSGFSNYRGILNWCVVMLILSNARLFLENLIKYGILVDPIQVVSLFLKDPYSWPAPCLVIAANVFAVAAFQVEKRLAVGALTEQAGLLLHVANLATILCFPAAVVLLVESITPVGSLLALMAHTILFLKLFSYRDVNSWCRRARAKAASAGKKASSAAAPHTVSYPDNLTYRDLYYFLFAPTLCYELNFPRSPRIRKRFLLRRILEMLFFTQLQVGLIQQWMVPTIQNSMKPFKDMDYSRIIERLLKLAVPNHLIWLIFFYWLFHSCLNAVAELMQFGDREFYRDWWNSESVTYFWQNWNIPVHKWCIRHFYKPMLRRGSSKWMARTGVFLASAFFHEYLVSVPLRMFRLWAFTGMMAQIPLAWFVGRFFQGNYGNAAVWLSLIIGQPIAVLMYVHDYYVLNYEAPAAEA
Description: Human DGAT1 was expressed in Sf9 insect cells using a baculovirus expression system. Microsomes were prepared and used as enzyme for in vitro inhibition testing in either of two formats measuring production of coenzyme A or tridecanoylglycerol product, respectively. All steps were performed at 21-23° C. All data for DGAT1 inhibition by test compounds were collected under conditions where product formation was linear with reaction time.
For inhibition of triacylglycerol product formation, 11 uL reactions were run in white Polyplate-384 (PerkinElmer6007300) starting with a 30 minute pre-reaction incubation of 5 uL of 2.2× enzyme and 1 uL of 100% DMSO containing test compound or control compound, {4-[4-(4-amino-7,7-dimethyl-7H-pyrimido[4,5-b][1,4]oxazin-6-yl)phenyl]cyclohexyl}acetic acid. Some assays were performed with inclusion of didecanoylglycerol in the pre-reaction incubation of test compounds and enzyme. Reactions were initiated after 30 minute pre-reaction incubation via addition of 5 uL of 2.2× substrate. Final reaction conditions consisted of 50 mM HEPES pH 7.5, 2 mM MgCl2, 1 mM CHAPS, 25 uM didecanoylglycerol, 0.5 uM decanoyl-CoA, 0.3 nCi/uL [^14C-]decanoyl-CoA or 0.5 nCi/uL [^3H]-decanoyl-CoA, 0.05-4 ug/mL microsomal protein, and 1% DMSO. Following 60 minute reaction incubation, reactions were stopped with 40 uL of 45% isopropanol and 50 mM sodium carbonate in water and mixed. Extraction of tridecanoylglycerol product was accomplished via addition of 30 uL Microscint-E (Perkin Elmer) and 2 hours of incubation (sealed). Plates were read on a Microbeta Microplate reader Inhibition was normalized to controls containing DMSO or 10 uM {4-[4-(4-amino-7,7-dimethyl-7H-pyrimido[4,5-b][1,4]oxazin-6-yl)phenyl]cyclohexyl}acetic acid. IC50s were fitted using GraphPad Prism to a sigmoidal dose response.

Row | Compound | pIC50
1 | O=C(O)CC1(CC(F)(F)F)CCc2cc(-c3cnc(Nc4ccc(C(F)(F)F)nc4)cn3)ccc2C1=O (single isomer, unassigned) [Example 14, 2-(1-Oxo-2-(2,2,2-trifluoroethyl)-6-(5-(6-(trifluoromethyl)pyridin-3-ylamino)pyrazin-2-yl)-1,2,3,4-tetrahydro-naphthalen-2-yl)acetic acid] | ≥ 7.00
2 | O=C(O)CC1(CC(F)(F)F)CCc2cc(-c3ccc(Nc4ccc(C(F)(F)F)nc4)cn3)ccc2C1=O (single isomer, unassigned) [Example 1, 2-(1-Oxo-2-(2,2,2-trifluoroethyl)-6-(5-(6-(trifluoromethyl)pyridin-3-ylamino)pyridin-2-yl)-1,2,3,4-tetrahydronaphthalen-2-yl)acetic acid] | ≥ 7.00
3 | O=C(O)CC1(CC(F)(F)F)CCc2cc(-c3cnc(Nc4ccc(C(F)(F)F)nc4)s3)ccc2C1=O (single isomer, unassigned) [Example 28, 2-(1-oxo-2-(2,2,2-trifluoroethyl)-6-(2-(6-(trifluoromethyl)pyridin-3-ylamino)thiazol-5-yl)-1,2,3,4-tetrahydronaphthalen-2-yl)acetic acid] | ≥ 7.00
4 | Cc1ccc(Nc2ccc(-c3ccc4c(c3)CCC(CC(=O)O)(CC(F)(F)F)C4=O)nc2)cc1 (single isomer, unassigned) [Example 9, 2-(1-oxo-6-(5-(p-tolylamino)pyridin-2-yl)-2-(2,2,2-trifluoroethyl)-1,2,3,4-tetrahydronaphthalen-2-yl)acetic acid] | 6.30 to 7.00
5 | O=C(O)CC1(CC(F)(F)F)CCc2cc(-c3ccc(Nc4ccc(Cl)cn4)cn3)ccc2C1=O (single isomer, unassigned) [Example 8, 2-(6-(5-(5-chloropyridin-2-ylamino)pyridin-2-yl)-1-oxo-2-(2,2,2-trifluoroethyl)-1,2,3,4-tetrahydronaphthalen-2-yl)acetic acid] | ≥ 7.00
6 | CCC1(CC(=O)O)CCc2cc(-c3ccc(Nc4ccc(C(F)(F)F)nc4)cn3)ccc2C1=O (single isomer, unassigned) [Example 4, 2-(2-Ethyl-1-oxo-6-(5-(6-(trifluoromethyl)pyridin-3-ylamino)pyridin-2-yl)-1,2,3,4-tetrahydronaphthalen-2-yl)acetic acid] | ≥ 7.00
